This is an account of results in patent US20190274974A1, “Treatment of Pain Associated with Trigeminal Neuralgia” (priority 2011, published 2019).

Assay type in all cases: in vivo, rat
The subject of one experiment is CCI-SN rats. As for the experimental part:
Rats are anaesthetized with sodium pentobarbital (50 mg/kg i.p.). Unilateral CCI-SN is performed under direct visual control using a Zeiss microscope (10-25×) essentially as described by Bennett and Xie (G. J. Bennett et al., Pain, 33 (1988) 87-107).
Mechanical sensitivity is determined with a graded series of von Frey filaments (Bioseb, Bordeaux, France; bending force: 0.07-60.0 g). The stimuli are applied within the SN territory (midplantar surface of the left hindpaw) three times at the nerve-injured side (ipsilateral, left) and then at the contralateral side for a total of 6 applications of each filament per rat, always beginning with the filament producing the lowest force. The von Frey filaments are applied at least 3 seconds after the rats returned to their initial resting state. For each session, the complete series of von Frey filaments is tested in increasing force order. The minimal force filament causing a hindpaw withdrawal response allows determination of the mechanical response threshold. The 60 g filament is the cut-off threshold.
For studying the effects of acute treatment with tapentadol in CCI-SN rats, tapentadol (1, 3 and 10 mg/kg i.p.) or its vehicle (0.9% NaCl i. p.) was injected acutely 14 days after surgery. Sham-operated rats were treated in parallel. Pressure threshold values to trigger nocifensive responses to von Frey filaments application onto the plantar surface of ipsilateral hindpaw were determined at various times after acute injection of tapentadol or saline. Cut-off was fixed at 60 g pressure.
For studying the effects of subchronic treatment with tapentadol in CCI-SN rats, starting on day 16 (Time=D) after surgery, they received i.p. injections of tapentadol (10 mg/kg, twice daily, at 10:00 AM and 6:00 PM) or saline (at the same day times as the drug) for four days. On the following day (day 20 after surgery), both tapentadol- and saline-pretreated CCI-SN rats were i.p. injected with Tapentadol (10 mg/kg; Time=0) and then subjected to von Frey filaments'test applied to ipsilateral hindpaw for determination of pressure threshold values at various times thereafter.
In a second part of this study (B), unilateral chronic constriction injury to the sciatic nerve was performed two weeks before acute treatment with reboxetine (10 mg/kg i.p.), tapentadol (10 mg/kg i.p.) or saline (0.5 ml i.p./rat). Pressure threshold values were then determined at various times using von Frey filaments test applied to ipsilateral hindpaw.
Morphine (1, 3 and 10 mg/kg s.c.) or its vehicle (0.9% NaCl) was injected acutely 14 days after CCI-SN surgery. Sham-operated rats were treated in parallel. Pressure threshold values to trigger nocifensive responses to von Frey filaments application onto the plantar surface of ipsilateral hindpaw were determined at various times after acute injection of morphine or saline.
14 days after CCI-SN surgery, rats were injected with reboxetine (10 mg/kg i.p.) or its vehicle (0.9% NaCl) followed, 15 min later, by morphine (1 mg/kg s.c.) or its vehicle (0.9% NaCl) and subjected to von Frey filament tests for the following 4 hours. Sham-operated rats were treated in parallel.
The results are depicted in FIG. 11.

For the next experiment, the system named is CCI-ION rats. As for the experimental part: Rats are anaesthetized with sodium pentobarbital (50 mg/kg i.p.). Unilateral CCI-ION is performed under direct visual control using a Zeiss microscope (10-25×) essentially as described by Vos et al (Vos B P, Strassman A M, Maciewicz R J (1994), J. Neurosci. 14: 2708-2723). Briefly, the head is fixed in a Horsley-Clarke stereotaxic frame and a midline scalp incision is made, exposing skull and nasal bone. The edge of the orbit, formed by the maxillary, frontal, lacrimal, and zygomatic bones, is dissected free. The orbital contents are gently deflected to give access to the infraorbital nerve which is dissected free at its most rostral extent in the orbital cavity, just caudal to the infraorbital foramen. Only 5 mm of the nerve can be freed (Vos et al.), providing the space for placement of two chromic catgut (5-0) ligations tied loosely (with about 2 mm spacing) around it. […] Finally, scalp incision is closed using silk sutures (4-0). In sham-operated rats, the ION is exposed using the […] procedure, but is not ligated.
Mechanical sensitivity is determined with a graded series of eleven von Frey filaments (Bioseb, Bordeaux, France). The filaments produce a bending force of 0.07, 0.16, 0.40, 0.60, 1.00, 2.00, 4.00, 6.00, 8.00, 10.00 and 12.00 g, respectively. The stimuli are applied within the ION territory (vibrissae pad) three times at the nerve-injured side and then at the contralateral side for a total of 6 applications of each filament per rat, always beginning with the filament producing the lowest force. The von Frey filaments are applied at least 3 seconds after the rats returned to their initial resting state. For each session, the complete series of von Frey filaments is tested in increasing force order.
The latter responses represent the highest scores in the rank-ordered response scoring system initially described by Vos et al. The minimal force filament causing at least one among these responses (to at least 2 out of the 3 an each side) allows determination of the mechanical response threshold. The 12.00 g filament is the cut-off threshold (no tissue-injury occurs at this pressing force).
For studying the effects of acute treatment with tapentadol in CCI-ION rats, tapentadol (1 or 10 mg/kg i.p.) or its vehicle (0.9% NaCl i. p.) was injected acutely 14 days after surgery. Sham-operated rats were treated in parallel. Pressure threshold values to trigger nocifensive responses to von Frey filaments application onto the plantar surface of ipsilateral hindpaw were determined at various times after acute injection of tapentadol or saline. Cut-off was fixed at 12 g pressure.
For studying the effects of subchronic treatment with tapentadol in CCI-ION rats, starting on day 16 (Time=D) after surgery, they received i.p. injections of tapentadol (10 mg/kg, twice daily, at 10:00 AM and 6:00 PM) or saline (at the same day times as the drug) for four days. On the following day (day 20 after surgery), both tapentadol- and saline-pretreated CCI-SN rats were i.p. injected with Tapentadol (10 mg/kg; Time=0) and then subjected to von Frey filaments' test applied to ipsilateral hindpaw for determination of pressure threshold values at various times thereafter.
14 days after CCI-ION surgery, rats were injected with reboxetine (10 mg/kg i.p.) or its vehicle (0.9% NaCl) followed, 15 min later, by morphine (3 mg/kg s.c.) or its vehicle (0.9% NaCl) and subjected to von Frey filament tests for the following 4 hours. Sham-operated rats were treated in parallel.

Experiment [1] concerns mRNA encoding ATF3, IL-6, BDNF and iNOS. Briefly: Real-time qRT-PCR of mRNA levels in ganglia and central tissues of CCI-ION rats. Conditions: subchronic 10 mg/kg i.p. twice daily; ipsilateral trigeminal ganglion and spinal nucleus of the trigeminal nerve; day 20. For orientation: In qPCR the cycle at which signal appears reflects the starting amount.

“Also recorded” adds a separate entry of the source.

For `CC[C@@H](c1cccc(O)c1)[C@@H](C)CN(C)C` [tapentadol, (−)-(1R,2R)-3-(3-dimethylamino-1-ethyl-2-methyl-propyl)-phenol], in the experiment with CCI-SN rats (1 mg/kg i.p., acute, first 15-30 min after injection, non significant), the “increase in pressure threshold value” is “approximately 40%”. In addition, the “effect on pressure threshold values” in the experiment on CCI-SN rats (3 mg/kg i.p., acute) is “increased pressure threshold values, but to a lower extent than 10 mg/kg i.p”. In addition, the “anti-allodynic effect of last administration after subchronic pretreatment (sensitization/desensitization)” value in the experiment on CCI-SN rats (10 mg/kg i.p. twice daily for four days or saline, then 10 mg/kg i.p. on day 20) was “produced the same anti-allodynic effects in saline-pretreated and tapentadol-pretreated rats; also recorded: neither in CCI-SN rats nor in those with CCI-ION, any sign of sensitization or desensitization”. The “pressure threshold values compared to healthy control values” in the experiment on CCI-SN rats (10 mg/kg i.p., acute, 15-30 min after administration) is on record as “no longer differed from healthy control values”. Also, the “mechanical allodynia compared to saline-treated CCI-SN rats” value with CCI-SN rats (10 mg/kg i.p., acute, 90 min after injection) is on record as “did not significantly differ from that measured in saline-treated CCI-SN rats”. In the experiment with CCI-SN rats (10 mg/kg i.p., first 45 min after last injection), the “pressure threshold values after the last injection under subchronic treatment” value was “markedly increased pressure threshold values”. In addition, in the experiment on CCI-SN rats (1-10 mg/kg i.p. dose range, acute), the “dose dependence of anti-allodynic effect” value was “clear dose-dependent anti-allodynic effect”. Moreover, in the experiment with CCI-ION rats (1 mg/kg i.p., acute), the “time for pressure threshold values to return to saline level after the maximum” value was at most 45 min and the “time over which the increase in pressure threshold developed” value was 45 min. In the experiment on CCI-ION rats (1 mg/kg i.p., acute, two weeks after surgery), the “increase in pressure threshold value compared to saline-treated CCI-ION rats” value was at most 6 fold. Besides, the “anti-allodynic effect after subchronic pretreatment (sensitization/desensitization)” value in the experiment with CCI-ION rats (10 mg/kg i.p. twice daily for four days or saline, then 10 mg/kg i.p.) was “had the same characteristics (amplitude, duration); also recorded: neither in CCI-SN rats nor in those with CCI-ION, any sign of sensitization or desensitization”. In addition, the “duration of statistically significant anti-allodynic effect” value in the experiment with CCI-ION rats (10 mg/kg i.p., acute) was “more than two hours”. The “pressure threshold values relative to those determined prior to injection” value in the experiment with CCI-ION rats (10 mg/kg i.p., acute, 30-60 min after injection) was 15-20 fold. Moreover, the “ATF3, IL-6, BDNF and iNOS mRNA levels in CCI-ION rats” value in experiment [1] is recorded as “no significant effects”.
